Test results: patent US11478460B2, “Diaryl substituted 6,5-fused ring compounds as C5aR inhibitors” (CHEMOCENTRYX, INC., priority 2017, dated 2022)

Each compound was assayed against C5aR (Homo sapiens (Human), UniProt P21730) (assay: Chemotaxis assay using U937 cells (C5aR mediated migration)). Settings: read-out: Mig IC50.
Chain of C5aR (P21730 whole entry): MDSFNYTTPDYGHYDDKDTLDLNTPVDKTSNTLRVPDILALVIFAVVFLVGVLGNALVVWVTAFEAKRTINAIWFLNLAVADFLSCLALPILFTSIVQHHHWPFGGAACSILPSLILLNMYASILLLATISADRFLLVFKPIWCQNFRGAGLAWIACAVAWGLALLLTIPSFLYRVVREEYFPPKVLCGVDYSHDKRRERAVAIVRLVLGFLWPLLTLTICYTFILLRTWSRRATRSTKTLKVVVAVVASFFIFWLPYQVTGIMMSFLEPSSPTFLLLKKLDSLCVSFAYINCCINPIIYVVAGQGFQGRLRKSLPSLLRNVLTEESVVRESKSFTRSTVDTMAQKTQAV
Assay type: cell-based
In short: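 Migration toward 0.03 nM C5a, mixed with varying compound in the lower chamber (HBSS with 1% FBS), was measured over 1.5 h at 37° C through 5 μm filters. Upper chamber held 100,000 U937 cells treated overnight with 0.5 mM cAMP; migrated cells quantified by counts or CyQuant for IC50, SDF-1α as specificity control.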
For `Cc1cc(Cl)cnc1N1CCc2nn(-c3c(C)cccc3OCC(C)C)c(-c3cc(F)c(NC(N)=O)cc3F)c2C1` [Example 1.168], the IC50 was at most 5 nM.
For `Cc1cccc(OCC(C)C)c1-n1nc2c(c1-c1cc(F)c(NC(N)=O)cc1F)CN(c1ncc(F)cc1Cl)CC2` [Example 1.169], the IC50 was at most 5 nM.
`Cc1cccc(OCC(C)C)c1-n1nc2c(c1-c1cc(F)c(NC(N)=O)cc1F)CN(c1ncccc1Cl)CC2` [Example 1.170] was tested, and the IC50 was at most 5 nM.
For `CC(C)COc1cccnc1-n1nc2c(c1-c1cc(F)c(NC(N)=O)cc1F)CN(c1ncc(Cl)cc1Cl)CC2` [Example 1.171], the IC50 was 5 to 50 nM.
`Cc1cccc(OCC(C)C)c1-n1nc2c(c1-c1cc(F)c(NC(N)=O)cc1F)CN(c1ncc(C3CC3)cc1F)CC2` [Example 1.172] gave an IC50 of at most 5 nM.
For `Cc1cccc(OCC(C)C)c1-n1nc2c(c1-c1cc(F)c(NC(N)=O)cc1F)CN(c1ncc(Cl)cc1F)CC2` [Example 1.173], the IC50 was at most 5 nM.
`Cc1cccc(C)c1-n1nc2c(c1-c1cc(F)c(NC(N)=O)cc1F)CN(c1ncc(C(F)(F)F)cc1F)CC2` [Example 1.174] showed an IC50 of at most 5 nM.
With `Cc1cccc(OCC(C)C)c1-n1nc2c(c1-c1cc(F)c(NC(N)=O)cc1F)CN(c1ncc(Cl)cn1)CC2` [Example 1.175] the IC50 was at most 5 nM.
In the case of `Cc1cccc(F)c1-n1nc2c(c1-c1cc(F)c(NC(N)=O)cc1F)CN(c1ncc(Cl)cc1Cl)CC2` [Example 1.176], the IC50 is reported as at most 5 nM.
For `Cc1cc(N2CCc3nn(-c4c(C)cccc4OCC(C)C)c(-c4cc(F)c(NC(N)=O)cc4F)c3C2)ncc1Cl` [Example 1.177], the IC50 was at most 5 nM.
`Cc1cccc(OCC(C)C)c1-n1nc2c(c1-c1cc(F)c(NC(N)=O)cc1F)CN(c1ncccc1F)CC2` [Example 1.178] showed an IC50 of at most 5 nM.
Work on `COc1cccc(F)c1-n1nc2c(c1-c1cc(F)c(NC(N)=O)cc1F)CN(c1ncc(Cl)cc1Cl)CC2` [Example 1.179] yielded an IC50 of 5 to 50 nM.
`Cc1cccc(C)c1-n1nc2c(c1-c1cc(F)c(NC(N)=O)cc1F)CN(c1ncc(Cl)cc1Cl)CC2` [Example 1.180] gave an IC50 of at most 5 nM.
Compound `CCc1cccc(CC)c1-n1nc2c(c1-c1cc(F)c(NC(N)=O)cc1F)CN(C(C)c1cccc(F)c1)CC2` (stereo not drawn) [Example 1.181] has an IC50 of at most 5 nM.
Work on `Cc1cccc(OCC(C)C)c1-n1nc2c(c1-c1cc(F)c(NC(N)=O)cc1F)CN(c1ccc(Cl)cn1)CC2` [Example 1.182] yielded an IC50 of at most 5 nM.
`NC(=O)Nc1cc(F)c(-c2c3c(nn2-c2c(F)cccc2F)CCN(c2ncc(Cl)cc2Cl)C3)cc1F` [Example 1.183] gave an IC50 of 5 to 50 nM.
`COc1cccc(C)c1-n1nc2c(c1-c1cc(F)c(NC(N)=O)cc1F)CN(c1ncc(Cl)cc1Cl)CC2` [Example 1.184] gave an IC50 of at most 5 nM.
In the case of `Cc1cc(C(C)C)cnc1N1CCc2nn(-c3c(C)cccc3OCC(C)C)c(-c3cc(F)c(NC(N)=O)cc3F)c2C1` [Example 1.185], the IC50 is reported as at most 5 nM.
For `CCc1cccc(CC)c1-n1nc2c(c1-c1cc(F)c(NC(N)=O)cc1F)CN(C(C)(C)c1ccccc1F)CC2` [Example 1.186], the IC50 was at most 5 nM.
In the case of `NC(=O)Nc1cc(F)c(-c2c3c(nn2-c2c(Cl)cccc2Cl)CCN(c2ncc(Cl)cc2Cl)C3)cc1F` [Example 1.187], the IC50 is reported as 5 to 50 nM.
`CC(C)COc1cccc(F)c1-n1nc2c(c1-c1cc(F)c(NC(N)=O)cc1F)CN(c1ncc(Cl)cc1Cl)CC2` [Example 1.188] was tested, and the IC50 was at most 5 nM.
`CC(C)COc1ccccc1-n1nc2c(c1-c1cc(F)c(NC(N)=O)cc1F)CN(c1ncc(Cl)cc1Cl)CC2` [Example 1.189] showed an IC50 of at most 5 nM.
For `Cc1cnc(N2CCc3nn(-c4c(C)cccc4OCC(C)C)c(-c4cc(F)c(NC(N)=O)cc4F)c3C2)c(Cl)c1` [Example 1.190], the IC50 was at most 5 nM.
`Cc1cccc(OCC(C)C)c1-n1nc2c(c1-c1cc(F)c(NC(N)=O)cc1F)CN(c1ncccc1C(C)C)CC2` [Example 1.191] gave an IC50 of at most 5 nM.
Compound `CCc1cccc(CC)c1-n1nc2c(c1-c1cc(F)c(NC(N)=O)cc1F)CN(C(C)(C)c1ccc(F)cc1)CC2` [Example 1.192] has an IC50 of at most 5 nM.
With `Cc1cccc(OCC(C)C)c1-n1nc2c(c1-c1cc(F)c(NC(N)=O)cc1F)CN(c1ccc(Cl)cc1Cl)CC2` [Example 1.194] the IC50 was at most 5 nM.
`CCc1cccc(CC)c1-n1nc2c(c1-c1cc(F)c(NC(N)=O)cc1F)CN(C(C)(C)c1cccc(F)c1)CC2` [Example 1.195] showed an IC50 of at most 5 nM.
Compound `Cc1cccc(OCC(C)C)c1-n1nc2c(c1-c1cc(F)c(NC(N)=O)cc1F)CN(C(c1ccccc1)C(F)(F)F)CC2` (stereo not drawn) [Example 1.196] has an IC50 of at most 5 nM.
`CCc1cccc(CC)c1-n1nc2c(c1-c1cc(F)c(NC(N)=O)cc1C)CN(C(C)c1ccccc1C(F)(F)F)CC2` (stereo not drawn) [Example 1.197] showed an IC50 of at most 5 nM.
`CC(C)COc1cccc(F)c1-n1nc2c(c1-c1cc(F)c(NC(N)=O)cc1F)CN(C(C)(C)c1ccccc1)CC2` [Example 1.198] was tested, and the IC50 was at most 5 nM.
`CC(C)COc1ccccc1-n1nc2c(c1-c1cc(F)c(NC(N)=O)cc1F)CN(C(C)(C)c1ccccc1)CC2` [Example 1.199] was tested, and the IC50 was at most 5 nM.
`CCc1cccc(CC)c1-n1nc2c(c1-c1cc(F)c(NC(N)=O)cc1F)CN(C(C)(C)c1ccccc1)CC2` [Example 1.200] showed an IC50 of at most 5 nM.
Compound `CCc1cccc(CC)c1-n1nc2c(c1-c1cc(F)c(NC(N)=O)cc1F)CN(c1ncc(Cl)cc1Cl)CC2` [Example 1.201] has an IC50 of at most 5 nM.
`Cc1cccc(OCC(C)C)c1-n1nc2c(c1-c1cc(F)c(NC(N)=O)cc1F)CN(c1ncc(C(C)C)cc1F)CC2` [Example 1.202] gave an IC50 of at most 5 nM.
`CC(C)COc1cccc(F)c1-n1nc2c(c1-c1cc(F)c(NC(N)=O)cc1F)CN(c1ncc(C(F)(F)F)cc1F)CC2` [Example 1.203] was tested, and the IC50 was at most 5 nM.
`CCc1cccc(CC)c1-n1nc2c(c1-c1cc(F)c(NC(N)=O)cc1F)CN(C(C)(C)C)CC2` [Example 1.204] showed an IC50 of 5 to 50 nM.
Compound `CC(C)COc1ccccc1-n1nc2c(c1-c1cc(F)c(NC(N)=O)cc1F)CN(c1ncc(C(F)(F)F)cc1F)CC2` [Example 1.205] has an IC50 of at most 5 nM.
`Cc1cc(Cl)cnc1N1CCc2nn(-c3c(C)cccc3OCC(C)C)c(-c3ccc(NC(N)=O)c(F)c3)c2C1` [Example 1.206] showed an IC50 of at most 5 nM.
In the case of `Cc1cccc(OCC(C)C)c1-n1nc2c(c1-c1cc(F)c(NC(N)=O)cc1F)CN(C(C)(C)c1ccccc1)CC2` [Example 1.207], the IC50 is reported as at most 5 nM.
Compound `CCc1cccc(CC)c1-n1nc2c(c1-c1cc(F)c(NC(N)=O)cc1F)CN(C(C)c1ccccc1C(F)(F)F)CC2` (stereo not drawn) [Example 1.208] has an IC50 of at most 5 nM.
`Cc1cccc(OCC(C)C)c1-n1nc2c(c1-c1cc(F)c(NC(N)=O)cc1F)CN(C(C)(C)C#N)CC2` [Example 1.209] was tested, and the IC50 was 50 to 500 nM.
In the case of `Cc1cccc(OCC(C)C)c1-n1nc2c(c1-c1cc(F)c(NC(N)=O)cc1F)CN(c1ncc(Cl)cc1Cl)CC2` [Example 1.210], the IC50 is reported as at most 5 nM.
With `Cc1cc(NC(N)=O)c(F)cc1-c1c2c(nn1-c1c(C)cccc1OCC(C)C)CCN(c1ncc(C(F)(F)F)cc1F)C2` [Example 1.211] the IC50 was at most 5 nM.
In the case of `CCc1cccc(CC)c1-n1nc2c(c1-c1cc(F)c(NC(N)=O)cc1F)CN(C(C)(C)CC)CC2` [Example 1.212], the IC50 is reported as at most 5 nM.
With `Cc1cnc(N2CCc3nn(-c4c(C)cccc4OCC(C)C)c(-c4ccc(NC(N)=O)c(F)c4)c3C2)c(Cl)c1` [Example 1.213] the IC50 was at most 5 nM.
For `CCC(C)(C)N1CCc2nn(-c3c(C)cccc3OCC(C)C)c(-c3cc(F)c(NC(N)=O)cc3F)c2C1` [Example 1.214], the IC50 was at most 5 nM.
In the case of `CCc1cccc(CC)c1-n1nc2c(c1-c1ccc(NC(N)=O)c(F)c1)CN(C(C)CC(C)C)CC2` (stereo not drawn) [Example 1.215], the IC50 is reported as 5 to 50 nM.
For `CCc1cccc(CC)c1-n1nc2c(c1-c1ccc(NC(N)=O)c(F)c1)CN(C(C)C1CCCC1)CC2` (stereo not drawn) [Example 1.216], the IC50 was 5 to 50 nM.
